Here are results for 88 compounds from a melting point compilation (Tetko et al.; mined from patent text by program, amines drawn as free bases though some values may be those of a salt).

The term melting point denotes the temperature, or range, at which the solid turns liquid.

Regarding `COC(=O)c1ccc([N+](=O)[O-])c(OC(C)C)c1`, the melting point was 46 to 48 °C.
The value for `COc1ccc(C)cc1NC(=O)Nc1ccc(N2CCN(C(=O)Oc3ccccc3)CC2)cc1` was 179 °C; that for `ONCC1(c2ccc(OCc3ccc4ccccc4n3)cc2)CCCC1` was 116 to 117 °C; that for `O=C(O)c1ccc(-c2ccccc2O)cc1` was 176 to 178 °C.
The value for `CNc1ccc2c(C)nc(CC3OC(COC(=O)c4ccccc4)C(O)C3O)n2n1` (stereo not drawn) was 163 to 165 °C; that for `CC(C)(C)CC(=O)Nc1ccc2oc3c(c2c1)CCCCCC3` was 157 to 158 °C.
The value for `COc1cc(Nc2c(C#N)cnc3cc(-c4ccc(CN5CCOCC5)c(CN5CCOCC5)c4)ccc23)c(Cl)cc1Cl` was 198 to 200 °C.
For the compound `Cc1ccc2nc(CCl)[nH]c(=O)c2c1`, the melting point was 263 to 265 °C.
The value for `CCOC(=O)N1CCC(=C2c3ccsc3C=Cn3ccnc32)CC1` was 194 °C; that for `Cc1ccc(N2CCc3cc(Br)ccc32)c([N+](=O)[O-])c1` was 105 to 107 °C.
As for `C#CCOc1cc2c(cc1F)CCC2CCNC(=O)CC` (stereo not drawn), the melting point lay in the range of 78 to 81 °C.
The value for `N#CC(c1ccc(Cl)c(Cl)c1)c1c(Cl)cc(N)cc1Cl` (stereo not drawn) was 191 to 194 °C.
The value for `CCCc1nc2c(N)nc3ccc(-c4cccc(S(C)(=O)=O)c4)cc3c2s1` was 252 to 255 °C.
`CCOC(=O)c1nnc(-c2ccc(S(C)=O)cc2)o1` (stereo not drawn) yielded a melting point of 129 to 131 °C.
The value for `CC1(c2cc(-c3cccc(CC4SC(N5CCOCC5)=NC4=O)c3)ccc2O)CCCCC1` (stereo not drawn) was 98 to 99 °C; that for `CCO/C(C)=C(/C#N)C(N)=S` was 201 to 204 °C.
The value for `CCOc1nc2cccc(C(=O)O)c2n1Cc1ccc(-c2ccccc2)c(-c2nnn[nH]2)c1` was 183 to 185 °C.
The value for `O=C(NCc1ccc(Cl)cc1)c1cn(CC2CCCO2)c2sc(CN3CCOCC3)cc2c1=O` (stereo not drawn) was 191 to 195 °C; that for `O=C(c1ccc(Cl)c([N+](=O)[O-])c1)c1ccccn1` was 98 to 99 °C.
Consider `CS(=O)(=O)N1CCCC(NC(=O)C(CC2CCCC2)NC(=O)c2ccco2)C(=O)C1` (stereo not drawn), for which the melting point lay within 158 to 161 °C.
Consider `CCOc1cc(OCc2ccccc2OCc2nc(-c3ccccc3)oc2C)ccc1CCC(=O)O`, for which the melting point lay in the range of 112 to 113 °C.
The value for `CC(=O)Nc1cc(NS(=O)(=O)CCl)c(Cl)cc1F` was 210 °C; that for `COC(=O)CNS(=O)(=O)c1c(C(=O)OC)sc2ccccc12` was 148 to 150 °C.
The value for `O=[N+]([O-])c1ccc2ncnc(Nc3cc(Cl)c(Cl)cc3F)c2c1` was 270 to 271 °C.
Turning to `COCCOc1cc(/C=C/C(=O)O)n(Cc2ccc(Cl)cc2Cl)n1`, the melting point fell in the range of 171 to 172 °C.
`CCOc1cc(C(C#N)N2C(=O)c3cccc(NC(C)=O)c3C2=O)ccc1OC` (stereo not drawn): the melting point was 118 to 120 °C.
The value for `O=C1CC(=O)NC(c2cccc(Cl)c2)=N1` was 256 to 257 °C; that for `COC[C@H]1C[C@H]1c1ccccc1` (relative stereo) was 46 to 50 °C; that for `Cc1cc(SC2=C(O)CC(CCc3ccsc3CO)(C(C)C)OC2=O)c(C(C)(C)C)cc1N` (stereo not drawn) was 107 to 115 °C.
The value for `CC(C)NS(=O)(=O)Oc1ccc(F)cc1` was 145 to 146 °C.
In turn, `CC(=O)N1CCCCc2ccc(C(=O)CCCl)cc21` gave a melting point of 106 to 107 °C.
The value for `OCCCc1ccccc1OCc1ccccc1` was 45 to 48 °C; that for `O=C(CN1C(=O)c2ccccc2C1=O)Nc1cccc(C(F)(F)F)c1` was 235 °C; that for `Fc1cccc(F)c1C1=NC(c2ccc(OCc3ccc4ccccc4c3)cc2)CO1` (stereo not drawn) was 148 to 150 °C.
The value for `O=C1[C@H](O)CCN1CC#CCN1CCCC1` was 81 to 85 °C.
The value for `CC(C)(C)c1cc(CN(C=O)n2ccnc2)cc(C(C)(C)C)c1O` was 167 °C.
`CN1C(=O)N(c2c(Cl)cccc2Cl)Cc2cnc(NCc3ccccc3)nc21` came in with a melting point of 195 to 198 °C.
The value for `CC(C)(N)c1ccc(-c2nc(Nc3ccc(CCN4CCOCC4)cc3)ncc2C#N)cc1` was 156 °C; that for `CSc1ccc(N2CCCN(/C(C)=C(/C#N)C(=S)/N=C/N(C)C)CC2)cc1` was 133 to 136 °C.
The value for `COc1ccc(C(=O)N2CCN(c3ccc([N+](=O)[O-])c(C=CC(=O)O)c3)CC2)cc1OC` was 197 to 202 °C; that for `COc1cn(-c2ccc(-c3ccccn3)cc2F)nc(-c2ccnn2-c2ccccc2)c1=O` was 206 to 208 °C.
The value for `CC1(C)OC(=O)C(=C2NCCN2)C(=O)O1` was 181 to 182 °C; that for `C#CCOc1cc(OCC=C)ccc1-c1nc2cnccc2[nH]1` was 195 °C; that for `Cc1nc2ccccc2c2c1OCCN2` was 203 to 204 °C.
Compound `Cc1oc(-c2ccccc2)nc1COc1ccc(CCc2oc(-c3ccccc3)nc2CC#N)cc1` showed a melting point of 97 to 98 °C.
The value for `N#CCc1ccc(CNC(=O)C2Cc3ccccc3N2S(=O)(=O)c2ccc(-c3cccc(C(F)(F)F)c3)cc2)cc1` (stereo not drawn) was 75 to 80 °C; that for `Oc1cccc(-c2noc3ccsc23)c1` was 114 to 116 °C.
In the case of `CC1=NN(c2ccc(C)c(C)c2)C(=O)C1=NNc1cccc(-c2cccc(P(=O)(O)O)c2)c1O`, the melting point was in the range of 144 to 149 °C.
The value for `Cc1nn(C)c(NCC(C)(C)C)c1N=O` was 83 to 84 °C; that for `C=CC(C)(C)c1c(C=O)c2ccc(Cl)cc2n1COCc1ccccc1` was 227 °C.
The value for `CC(=O)SC(CC(=O)c1ccccc1)C(=O)O` (stereo not drawn) was 90 °C; that for `COc1cc(O)cc(C(F)(F)F)c1` was 75 °C; that for `CC1SC(C(=O)Nc2ccc(CN3CCOC3=O)cc2)Cc2cc3c(cc2C1=O)OCO3` (stereo not drawn) was 231 to 233 °C.
The value for `CCCCCCCNC(=O)Nc1ccccc1C(=O)Nc1cccnc1` was 144 °C; that for `O=C(NCCCCCCOC(=O)N1CCC2(CCCC2)CC1)OC1CCN(C(=O)Oc2cccc(Oc3ccccc3)c2)CC1` was 72 to 120 °C; that for `COCN1c2cc(C(=O)OC)ccc2Sc2nccnc21` was 151 to 152 °C.
`CCOC(=O)COc1ccc2cnn(C[C@H](C)NC(=O)OCc3ccccc3)c2c1Br` gave a melting point of 89 to 90 °C.
The value for `CCOC(=O)N1C(=O)C(C)(C)c2cc(C3=NNC(=O)SC3C)ccc21` (stereo not drawn) was 246 °C.
The value for `COc1ccc(-n2cccc2)c(N)c1` was 42 to 43 °C; that for `COc1cc2ncnc(N3CCN(C(=O)Nc4ccc(N=Nc5ccccc5)cc4)CC3)c2cc1OC` was 244 to 246 °C; that for `C[C@H](O)c1ccccc1S(=O)(=O)c1ccc(/C=C/c2ccc(F)cc2)cc1` was 75 °C.
The value for `CN(C)CCCCC(=O)NC(Cc1c[nH]c2ccccc12)C(=O)CCc1cc(C(F)(F)F)cc(C(F)(F)F)c1` (stereo not drawn) was 140 °C.
With `COC(=O)[C@H](Cc1ccc(OCCc2nc(-c3ccccc3)oc2C)cc1)Nc1ccccc1C(=O)c1ccccc1`, the melting point lay in the range of 55 to 60 °C.
The compound `Cc1ccc(S(=O)(=O)NCC(CC(C)C)NS(=O)(=O)c2ccc(C)cc2)cc1` (stereo not drawn) displayed a melting point of 138 to 140 °C.
The value for `Cc1cn(Nc2ccncc2F)c2ccccc12` was 45 °C.
The value for `OCC1CCc2c([nH]c3ccc(Cl)cc23)C1` (stereo not drawn) was 168 to 169 °C; that for `CCc1ccc(C(=O)Sc2ccccn2)cc1` was 48 to 50 °C; that for `CCOc1ccc(-c2c(C(=O)OC)c(C(=O)OC)c(O)c3cc(OC)c(OC)c(OC)c23)cc1OC` was 159 °C.
As to `COc1cc(Nc2c(C#N)cnc3cc(F)ccc23)c(Cl)cc1Cl`, the melting point fell in the range of 199 to 201 °C.
`CC1(C)OC(=S)N(c2cc(C#N)ccc2F)c2ccccc21`: the melting point is 250 to 251 °C.
The value for `COc1cccc(CC(=O)O)c1OCCCc1cn(-c2ccc(C(F)(F)F)cn2)nc1C1CCCCC1` was 140 to 141 °C; that for `CNC(=O)C(C)Oc1ncn(-c2cccc(Cl)c2)n1` (stereo not drawn) was 120 to 122 °C.
The value for `Cc1cc(CN2C(=O)C3(COc4cc5c(cc43)OCO5)c3ccccc32)c(C)n1C(C)C` (stereo not drawn) was 169 to 171 °C.
Compound `CCOC(=O)c1nnc2ccc(NC3=CC(=O)CC(C)(C)C3)cc2c1O` gave a melting point of 274 °C.
The value for `Cn1nc(C(F)(F)F)n(-c2ccc(C#Cc3ccccc3)cc2Cl)c1=S` was 50 to 53 °C.
For `O=C1CCC(c2cccc(C(F)(F)F)c2)=NN1`, the melting point was 211 to 214 °C.
The value for `COc1cc2c(cc1O)CC(C)(C)N(Cc1cc(OC)c(OC)c(OC)c1)C2` was 143 to 147 °C; that for `Cn1c(C(=O)NN)nc2ccccc21` was 156 to 159 °C; that for `CCCCOc1ccc(C(=O)c2ccc(OCCBr)cc2)cc1` was 107 to 108 °C.
The value for `CON=C(C(=O)OC)c1ccccc1CSc1nc2ccccc2s1` was 113 to 114 °C; that for `COC(=O)COc1cccc(NC(=O)NCC(=O)N(CC(=O)OC(C)(C)C)c2ccccc2C(=O)c2ccccc2)c1` was 74 to 77 °C; that for `Cc1cnc(CN2CCNC2=C[N+](=O)[O-])cn1` was 163 to 166 °C.
The value for `Cc1ccc(S(=O)(=O)N2CCC[C@H]2C(=O)N[C@@H](Cc2ccc(OCCCN3CCN(C)CC3)cc2)C(=O)O)cc1` was 80 to 83 °C; that for `C=C(C)c1cc(S(=O)(=O)c2ccc(N)cc2)cc(N2CCCC2)n1` was 200 to 201 °C.
`CCCc1nc2c(N)nc(C)c(C)c2n1CCCC(N)=O`: the melting point lay within 226 to 228 °C.
The value for `CC(C)c1cccc(C(C)C)c1NC(=NCc1cccc(CCl)c1)Nc1c(C(C)C)cccc1C(C)C` was 122 to 124 °C.
The value for `Cn1c(-c2ccccc2)c(C2CCC(C(=O)O)(C(=O)O)CC2)c2ccccc21` was 230 °C; that for `CC(=O)c1ccc(OCc2ccccc2)c2c1OC(C)(C)C(=O)N2` was 124 to 126 °C.
